Residues, ends and D or L forms follow the SMILES beside them. *: point of attachment. Propionyl = CCC(=O)*; NHPh = c1ccc(N*)cc1
SMILES	melting point [°C]
COc1cc(OC)nc(NC(=O)NS(=O)(=O)Cc2ccccc2C(=O)N(C)C)n1	141 to 143
CC(C)CC(NCC(=O)NOCc1ccccc1)C(=O)NC(Cc1ccc2ccccc2c1)C(=O)NC(C)C(N)=O (stereo not drawn)	205 to 212
N#Cc1ccc(Nn2ccnc2)cc1	162
O=c1oc(-c2cccc(Cl)c2)ns1	83 to 84.5
CC(C)NCCCC[C@@H](N)C(=O)O	224
O=C(O)c1ccoc1Cl	138 to 141
CCOC(=O)c1ccc(NC(=O)Nc2c(OC)ccc3c2C(C)(C)COC3(C)C)cc1	147 to 149
CS(=O)(=O)c1ccc(-n2nc(C(F)(F)F)cc2-c2ccc([N+](=O)[O-])cc2)cc1	203 to 205
COc1ccc(Cn2cc[nH]c2=S)cc1	140
Cc1ccc2sc3nncn3c2c1C	226 to 228
O=C=Nc1ccc(S(=O)(=O)Cl)cc1	50 to 52
O=C(O)C1Cc2c(ncn2Cc2ccccc2)CN1C(=O)C(c1ccccc1)c1ccccc1 (stereo not drawn)	167 to 169
CC(C)NC1=C(Cl)NC(N)(C(=O)NC#N)C=N1 (stereo not drawn)	232
COC(=O)c1c(Cc2ccc(S(=O)(=O)NCCO)cc2)c(=O)c2ccc(Cl)cc2n1-c1ccccc1	192 to 193
CCCCC(=O)NCc1ccc(C#CCCOCCCCCCNCc2ccccc2)cc1	66 to 67
CSc1nccn1NCc1cc(C(C)(C)C)c(O)c(C(C)(C)C)c1	110 to 113
CSc1ccc(Cl)c(C(=O)Nc2ccc(-n3nc(C(F)(F)F)cc3C3CC3)cc2)c1	172 to 177
Cc1ccc2c(c1)C=Cc1cc(C)ccc1C2c1cn(Cc2ccc(C(=O)Nc3nc(CC(=O)Nc4nc(CC(=O)O)cs4)cs3)o2)c(=O)[nH]c1=S	253
CC(C)NC(=C1Sc2ccccc2C1=O)c1ccccc1	112 to 113
CC1Sc2c(C(=O)O)c(=O)c3cc(F)c(N4CCN(C)CC4)c(F)c3n21 (stereo not drawn)	238
COc1ccc(/C=C(\C#N)c2cccnc2)cc1OC1CCCC1	86.5 to 87.5
N#Cc1cccc(C=C2c3ccccc3CCc3ccccc32)c1	116
CC12CCC(=O)C=C1CCN(Cc1ccccc1)C2 (stereo not drawn)	98
NC(=O)C1(O)c2ccccc2S(=O)(=O)N1Cc1ccc(Br)cc1 (stereo not drawn)	166 to 168
COC(=O)c1ccc(-c2nc(-c3ccc(OC(F)(F)F)cc3)cs2)cc1	138 to 139
COC(=O)c1cccc(NC(=S)Nc2cc(NC(=O)Nc3ccc(Cl)c(Cl)c3)ccc2OC)c1	193 to 194

SMILES	melting point [°C]
NS(=O)(=O)c1ccccc1C1=NOCCO1	131 to 133
CCC(=O)N[C@@H](C)C(=O)N1CCC[C@H]1C(=O)Nc1ccccc1 (Propionyl-Ala-Pro-NHPh)	156 to 157
COC(=N)COc1ccc(OC)cc1	95 to 96
COCCOc1cc(NS(=O)(=O)c2ccccn2)c2[nH]c(C(=O)O)cc2c1	230 to 232
O=C(O)COc1ccc(CC(Cc2ccccc2)NS(=O)(=O)c2ccc(Cl)cc2)cc1 (stereo not drawn)	150 to 151
CN(C)CCCC1(C#N)c2ccccc2COc2ccccc21 (stereo not drawn)	112 to 114
CS(=O)(=O)c1ccc(-c2nc(C(F)(F)F)nc(NN)c2-c2ccccc2)cc1	272 to 275
CC(C)(C)OC(=O)NNc1ccc2ccccc2n1	148 to 150
CCOC(=O)C(=O)Nc1cc(C(F)(F)F)c(S(=O)(=O)NC(=O)C(=O)OCC)cc1[N+](=O)[O-]	175 to 180
COc1ccc(/C(=C\C=C\C(=O)O)c2ccccc2OC)cc1	159 to 161
Cc1oc2c(NC(=O)c3c(Cl)ccc(Cl)c3C(N)=O)cccc2c1C	229 to 232
Cc1sc(-c2ccc(Cl)cc2)nc1O	198 to 199
CC(=O)Nc1ncsc1-c1ccccc1	105 to 107
CN1CCN(c2cccc(-c3cnn4c(N)c(-c5ccccc5Cl)cnc34)c2)CC1	200 to 203
CCc1ccc(-c2ccc(-c3ccc(C)s3)c(F)c2)cc1	102
CC1CN(c2ccccn2)N=C1N (stereo not drawn)	149 to 151
Cc1cc2c(s1)C(C(=O)O)CC2 (stereo not drawn)	105 to 107
Cc1ccc([N+](=O)[O-])c(C(N)=O)c1	172 to 175
CCc1cc(C(F)(C(F)(F)F)C(F)(F)F)cc(C)c1NC(=O)c1cccc(N=S=O)c1	100 to 108
O=[N+]([O-])c1ccc2c(c1)OC(C1(CCCCCl)OCCO1)CO2 (stereo not drawn)	74 to 76
CN1CC(c2ccno2)CC2c3cccc4[nH]cc(c34)CC21 (stereo not drawn)	132 to 134
CCc1c(C(N)=O)sc(SC)c1-c1oncc1C	93.5 to 94.5
O=Cc1ccc(-c2ccc(O)cc2)c2sccc12	202 to 204
CCCCCCCCCCCCCC(=O)Nc1ccc(Cl)c(NC(=CC(=O)OCC)NNc2c(Cl)cc(Cl)cc2Cl)c1	91 to 93
O=C(CCN1CCN(c2ccc3c(c2)OCO3)CC1)c1csc2ccc(F)cc12	84 to 86
N=C(N)Nc1nc(CSCCNc2ncc(Cc3ccc(Cl)cc3)c(=O)[nH]2)cs1	205 to 207

SMILES	melting point [°C]
Nc1c(-c2ccc(-c3nnco3)cc2)nnn1-c1ccc(C(F)(F)F)cc1F	185 to 186
Cc1ccc(-c2oncc2CCC(=O)O)cc1	121 to 122
Cc1ccc(OCC(=O)O)c2sc3ccccc3c(=O)c12	198 to 235
CN(O)C(=O)NCCc1cccc(Oc2ccccc2)c1	84.5 to 86
COc1cc(C)c(OCCCC(C)(C)C(=O)O)cc1C	85 to 86
Nc1ccc2c(c1)SC1=NCCCN12	186
CSc1cc(-c2nc3ccccc3[nH]2)no1	179 to 181
COC(=O)c1cc(C23CC4CC(CC(C4)C2)C3)c(OC)cc1F	82 to 88
O=C(O)c1cn(C2CC2)c2c(C(F)(F)F)c(F)c(F)cc2c1=O	159 to 162
O=C(O)C1C(=O)c2cc(F)ccc2N=C1c1ccccc1 (stereo not drawn)	297
CS(=O)(=O)N1CCC[C@@H]1[C@H](CS(=O)(=O)c1ccc(Oc2ccc(OC(F)(F)F)cc2)cc1)N(O)C=O	89.6 to 93
CN(CCCC(N)=O)Cc1ccc(Cl)cc1	62 to 64
CC(C)c1nc(CNC(=O)C(F)(F)F)n(C)c1Sc1cc(Cl)cc(Cl)c1	157 to 158
CCCCCCC(C)(C)c1ccc(C2=CCCC3(C2)OCCO3)c(O)c1	97 to 98
O=C(Cl)N1c2ccccc2C=Cc2ccccc21	145 to 150
O=C(O)c1cn(-c2ccc(O)cc2)c2cc(F)c(F)cc2c1=O	288 to 290
COc1cc(-c2nc3ccc(OCCN(C(C)C)C(C)C)cc3n2Cc2ccccc2)cc(OC)c1OC	101
COc1ccccc1NC(=O)C1CCc2nc[nH]c2C1 (stereo not drawn)	100 to 102
COC(=O)Oc1ccc(OC)c(C=O)c1	88 to 89
CCCC1CCC2c3ccc(OCC)c(F)c3OC2C1 (stereo not drawn)	128
Nc1cc(N=c2sc(=S)n3n2CCCC3)c(F)cc1Cl	59 to 61
CCC(CC)c1ccc(CN2CCCC2)c2nc(Oc3c(C)cc(Cl)cc3Cl)n(C)c12	107 to 108
Clc1ccc(Sc2cc(NCCN3CCOCC3)nc(-c3ccc(Cl)cc3)n2)cc1	159 to 161
Cn1cc2c(nc(NC(=O)Nc3ccc(CC(=O)NCCCCNC(=O)OC(C)(C)C)cc3)n3nc(-c4ccco4)nc23)n1	186 to 193
C1=C(CCCc2ccccc2)CCN(Cc2nc3ccccc3[nH]2)C1	131 to 132
CC(C)CN(C)c1ccccc1CS(=O)c1nc2ncccc2[nH]1 (stereo not drawn)	116 to 118

SMILES	melting point [°C]
CCc1c(O)c(C(C)=O)cc2c1OC(C)(C)CC2C (stereo not drawn)	104 to 106
CCCCC(=O)N(CCCCO)Cc1ccc(-c2ccccc2-c2nnn[nH]2)cc1	110 to 111
O=C(NCC(=O)OCCC(F)=C(F)F)Nc1ccc(Cl)cc1Cl	120
CC(C)COP(C)(=O)CC(=O)CNC(=O)OC(C)(C)C (stereo not drawn)	65 to 68
CCCCCC(CCN1C(=O)NC2CC(=O)CC21)OC(C)=O (stereo not drawn)	85 to 86
CCCCCC(Oc1ccc(C2=CCCCCCC2)cc1)C(=O)O (stereo not drawn)	57 to 60
O=c1c2cc(Br)ccc2[nH]n1-c1ccccc1F	200 to 205
CCOC(=O)C1=C(C)NC(C)=C(C(=O)OCC)C1c1ccccc1OCc1ccccc1	134 to 136
Cc1nc2[nH]c(=O)[nH]c2cc1-c1ccc(N)cc1	277 to 283
CC(C)OC(=O)C=Cc1cc(N2C(=O)CC(C(F)(F)F)N(C)C2=O)ccc1Cl (stereo not drawn)	200 to 202
CCCC1=C(C#N)C(c2cccc(C#N)c2Cl)c2c[nH]nc2N1 (stereo not drawn)	> 250
COc1ccn2nc(-c3ccccc3)c(-c3ccc(=O)n(C4CCOC4)n3)c2c1 (stereo not drawn)	207 to 208
CCN(CC)C(=O)Oc1cc(CN/C=C2\C(=O)NC(=O)c3ccc(I)cc32)ccc1OC	128 to 130
CC(=O)N(C#N)C1(c2ccc(OCc3ccc4ccccc4n3)cc2)CCCC1	90
CC1CCc2cc(C(O)C(C)N3CCC(n4c(=O)[nH]c5ccccc54)CC3)ccc2S1 (stereo not drawn)	237 to 239
CCc1cc(Oc2ccc(S(C)(=O)=O)nc2)cc2cc(C3=NCC(CC(=O)O)S3)[nH]c12 (stereo not drawn)	230 to 232
CCCC(NS(=O)(=O)c1ccc(Cl)cc1)C(=O)Nc1ccc(CC(=O)OCC)cc1 (racemic)	93 to 95
Clc1ccc(-n2nc3c(c2Br)CCCC3)cc1	101 to 102
COc1ccc(C2=CC(O)CC2)cc1OC1CCCC1 (stereo not drawn)	105 to 107
CCCCC1=C(C)C=NC1=O	95 to 97
CN1CCc2c(c3ccccc3n2CCC(N)=S)C1	149 to 151
COC(=O)C(C)(C)OCc1cc2cc(Cl)ccc2n1S(=O)(=O)c1cc(OC)ccc1OC	132 to 134
Cc1nc2sccn2c(=O)c1CCN1CCC(c2noc3cc(F)ccc23)CC1	165
COc1ccc(N2CCN(c3cc4c(c(C)c3C)OC(C)(C)C4)CC2)cc1	180 to 182
Clc1ccccc1-c1nc(Cl)n(-c2ccccc2Cl)n1	95.5

From a melting point compilation (Tetko et al.; mined from patent text by program, amines drawn as free bases though some values may be those of a salt)
